From patent US4745124A, “Orally effective anti-hypertensive agents” (priority 1983, dated 1988)
Counter-ions that a name gives are not always drawn.

Tests used:
[1] = system: pressor effects of angiotensin I; assay: oral effectiveness: blood pressure response to angiotensin I in anesthetized rats; assay type: in vivo, rat
Description: Rats (210-290 g body weight) were fasted overnight and then anesthetized with intraperitoneal pentobarbital, 50-60 mg/kg. Tracheostomy was performed and the animals were ventilated mechanically. A cannula was inserted into a femoral vein for injection of angiotensin I or II, and a second cannula was inserted into a common carotid artery for direct measurement of arterial blood pressure. Heparin, 1,000 units, was injected via the femoral vein to prevent coagulation. Blood pressure was measured with a pressure transducer connected to a polygraph. The rats were injected with 80 ng of angiotensin I or angiotensin II in 20 μl of 0.9 g % NaCl; an amount of antiotensin I or II sufficient to raise mean arterial blood pressure by 27-40 mm Hg. After the responsiveness of a given rat to angiotensins I and II was established, compound (I), at 2 or 5 mg/kg (drug dissolved in 0.5 ml of H2 O plus 10 μl of 1N NaHCO3), was given via a stomach tube. At timed intervals, the effects of 80 ng of angiotensin I or angiotensin II on mean arterial blood pressure were tested.
Rats were prepared as described in Example 222. Compound (II) [N-benzoyl-L-phenylalanylthiopropanoyl)-L-proline] was given orally, via a stomach tube, at a dose of 12 mg/kg or 20 mg/kg. Compound (II) was dissolved in 0.5 ml of H2 O plus 10 μl of 1N NaHCO3. In all other respects, the experimental preparations were exactly as described in Example 222.
Rats (210-290 g body weight) were fasted overnight and then anesthetized with intraperitoneal pentobarbital, 50-60 mg/kg. Tracheostomy was performed and the animals were ventilated mechanically. A cannula was inserted into a femoral vein for injection of angiotensin I or II, and a second cannula was inserted into a common carotid artery for direct measurement of arterial blood pressure. Heparin, 1,000 units, was injected via the femoral vein to prevent coagulation. Blood pressure was measured with a pressure transducer connected to a polygraph. The rats were injected with 160 ng of angiotensin I or 80 ng of angiotensin II in 20 μl of 0.9 g % NaCl; an amount of angiotensin I or II sufficient to raise mean arterial blood pressure by 27-40 mm Hg. After the responsiveness of a given rat to angiotensins I and II was established, compound (B) at 10 mg (drug dissolved in 0.5 ml of H2 O plus 10 μl of 1N NaHCO3), was given via a stomach tube. At timed intervals, the effects of 160 ng of angiotensin I or 80 ng of angiotensin II on mean arterial blood pressure were tested. Results are shown below:
Rats (210-290 g body weight) were fasted overnight and then anesthetized with intraperitoneal pentobarbital, 50-60 mg/kg. Tracheostomy was performed and the animals were ventilated mechanically. A cannula was inserted into a femoral vein for injection of angiotensin I, and a second cannula was inserted into a common carotid artery for direct measurement of arterial blood pressure. Heparin, 1,000 units, was injected via the femoral vein to prevent coagulation. Blood pressure was measured with a pressure transducer connected to a polygraph. The rats were injected with 400 ng/kg of angiotensin I in 20 μl of 0.9 g % NaCl; an amount of angiotensin I sufficient to raise mean arterial blood pressure by 39 mm Hg. After the responsiveness of a given rat to angiotensin I was established, the named compound at 17 μmol/kg (drug dissolved in 0.15 ml of H2 O plus 10 μl of 1N NaHCO3), was given via a stomach tube. At timed intervals, the effects of 400 ng/kg of angiotensin I on mean arterial blood pressure were tested. Results are shown below:
Rats (190-290 g body weight) were fasted overnight and then anesthetized with intraperitoneal pentobarbital, 50-60 mg/kg. Tracheostomy was performed and the animals were ventilated mechanically. A cannula was inserted into a femoral vein for injection of angtiotensin I, and a second cannula was inserted into a common carotid artery for direct measurement of arterial blood pressure. […]

[2] = system: pressor effects of angiotensin I; assay: intravenous effectiveness: blood pressure response to angiotensin I in anesthetized rats; assay type: in vivo, rat; details: for t1/2: recovery of one half of lost responsiveness to angiotensin I 400 ng/kg
Description: (§1) Anesthetized rats were prepared as described in Example 228. After the responsiveness of a given rat to angiotensin I was established, the named compound at 2 μmol/kg, in a volume of 15 μl of 0.01N sodium bicarbonate, was injected via a femoral vein. At timed intervals, the effects of angiotensin I, 400 ng/kg, on mean arterial blood pressure were tested. Results are shown below:
as §1, with “231.” for “228.”, “compound,” for “compound”
Anesthetized rats were prepared as described in Example 239. The animals were administered the named compound via a femoral vein in 15 μl of 0.01N sodium bicarbonate, after the control response to 400 ng/kg of angiotensin I was measured. […] The time required for recovery of one half of the lost responsiveness to angiotensin I, following injection of the named compound, was designated t1/2. […] Results are shown for two dose levels:
Anesthetized rats were prepared as described in Example 242. The named compound was administered intravenously via a femoral vein, at the stated dose, in 15 μl of 0.01N sodium bicarbonate. The response to intravenous administration was a rapid decrease in responsiveness to Angtiotensin I, 400 ng/kg, followed by a gradual recovery to the pretreatment level of responsiveness. The time required for recovery of one half the lost responsiveness to angiotensin I, following injection of the named compound, is designated t1/2. […] Results are shown for the three dose levels:
The intravenous effectiveness of the named compound was examined by following the procedure described in Example 244 except that 1 μmole/kg of the drug was given intravenously. The results are shown below:
The intravenous effectiveness of the named compound was examined by following the procedure described in Example 246 except that 1 μmole/Kg of the drug was given intravenously.

## C[C@H](CSC(=O)[C@@H](N)CCC(=O)O)C(=O)N1CCC[C@H]1C(=O)O [N-alpha-[3-(L-alpha-glutamylthio)-2-D-methyl-propanoyl]-L-proline]
[1]; oral 10 μmol/kg, 9 min, Ex. 244
  Blood Pressure Response to 400 ng/kg of Angiotensin I: 66 % of Control
[1]; oral 10 μmol/kg, 18 min, Ex. 244
  Blood Pressure Response to 400 ng/kg of Angiotensin I: 39 % of Control
[1]; oral 10 μmol/kg, 26 min, Ex. 244
  Blood Pressure Response to 400 ng/kg of Angiotensin I: 39 % of Control
[1]; oral 10 μmol/kg, 33 min, Ex. 244
  Blood Pressure Response to 400 ng/kg of Angiotensin I: 26 % of Control
[1]; oral 10 μmol/kg, 39 min, Ex. 244
  Blood Pressure Response to 400 ng/kg of Angiotensin I: 18 % of Control
[1]; oral 10 μmol/kg, 45 min, Ex. 244
  Blood Pressure Response to 400 ng/kg of Angiotensin I: 18 % of Control
[1]; oral 10 μmol/kg, 53 min, Ex. 244
  Blood Pressure Response to 400 ng/kg of Angiotensin I: 13 % of Control
[1]; oral 10 μmol/kg, 64 min, Ex. 244
  Blood Pressure Response to 400 ng/kg of Angiotensin I: 13 % of Control
[1]; oral 10 μmol/kg, 77 min, Ex. 244
  Blood Pressure Response to 400 ng/kg of Angiotensin I: 26 % of Control
[1]; oral 10 μmol/kg, 89 min, Ex. 244
  Blood Pressure Response to 400 ng/kg of Angiotensin I: 26 % of Control
[1]; oral 10 μmol/kg, 111 min, Ex. 244
  Blood Pressure Response to 400 ng/kg of Angiotensin I: 24 % of Control
[1]; oral 10 μmol/kg, 125 min, Ex. 244
  Blood Pressure Response to 400 ng/kg of Angiotensin I: 26 % of Control
[2]; i.v. 1 μmole/kg, 0.5 min, Ex. 245
  Blood Pressure Response to 400 ng/kg of Angiotensin I: 13 % of Control
[2]; i.v. 1 μmole/kg, 3 min, Ex. 245
  Blood Pressure Response to 400 ng/kg of Angiotensin I: 13 % of Control
[2]; i.v. 1 μmole/kg, 7 min, Ex. 245
  Blood Pressure Response to 400 ng/kg of Angiotensin I: 13 % of Control
[2]; i.v. 1 μmole/kg, 11 min, Ex. 245
  Blood Pressure Response to 400 ng/kg of Angiotensin I: 21 % of Control
[2]; i.v. 1 μmole/kg, 22 min, Ex. 245
  Blood Pressure Response to 400 ng/kg of Angiotensin I: 21 % of Control
[2]; i.v. 1 μmole/kg, 28 min, Ex. 245
  Blood Pressure Response to 400 ng/kg of Angiotensin I: 18 % of Control
[2]; i.v. 1 μmole/kg, 37 min, Ex. 245
  Blood Pressure Response to 400 ng/kg of Angiotensin I: 29 % of Control
[2]; i.v. 1 μmole/kg, 47 min, Ex. 245
  Blood Pressure Response to 400 ng/kg of Angiotensin I: 37 % of Control
[2]; i.v. 1 μmole/kg, 56 min, Ex. 245
  Blood Pressure Response to 400 ng/kg of Angiotensin I: 39 % of Control
[2]; i.v. 1 μmole/kg, 82 min, Ex. 245
  Blood Pressure Response to 400 ng/kg of Angiotensin I: 53 % of Control
[2]; i.v. 1 μmole/kg, 92 min, Ex. 245
  Blood Pressure Response to 400 ng/kg of Angiotensin I: 71 % of Control

## C[C@H](CSC(=O)[C@H](Cc1c[nH]c2ccccc12)NC(=O)c1ccccc1)C(=O)N1CCC[C@H]1C(=O)O [N-alpha-[3-(N-alpha-benzoyl-L-tryptophylthio)-2-D-methylpropanoyl]-1-proline]
[1]; oral 20 μmol/kg, 3 min, Ex. 242
  Blood Pressure Response to 400 ng/kg of Angiotensin I: 92 % of Control
[1]; oral 20 μmol/kg, 7 min, Ex. 242
  Blood Pressure Response to 400 ng/kg of Angiotensin I: 64 % of Control
[1]; oral 20 μmol/kg, 21 min, Ex. 242
  Blood Pressure Response to 400 ng/kg of Angiotensin I: 32 % of Control
[1]; oral 20 μmol/kg, 26 min, Ex. 242
  Blood Pressure Response to 400 ng/kg of Angiotensin I: 40 % of Control
[1]; oral 20 μmol/kg, 32 min, Ex. 242
  Blood Pressure Response to 400 ng/kg of Angiotensin I: 40 % of Control
[1]; oral 20 μmol/kg, 38 min, Ex. 242
  Blood Pressure Response to 400 ng/kg of Angiotensin I: 20 % of Control
[1]; oral 20 μmol/kg, 50 min, Ex. 242
  Blood Pressure Response to 400 ng/kg of Angiotensin I: 8 % of Control
[1]; oral 20 μmol/kg, 56 min, Ex. 242
  Blood Pressure Response to 400 ng/kg of Angiotensin I: 8 % of Control
[1]; oral 20 μmol/kg, 70 min, Ex. 242
  Blood Pressure Response to 400 ng/kg of Angiotensin I: 8 % of Control
[1]; oral 20 μmol/kg, 79 min, Ex. 242
  Blood Pressure Response to 400 ng/kg of Angiotensin I: 20 % of Control
[1]; oral 20 μmol/kg, 87 min, Ex. 242
  Blood Pressure Response to 400 ng/kg of Angiotensin I: 12 % of Control
[1]; oral 20 μmol/kg, 104 min, Ex. 242
  Blood Pressure Response to 400 ng/kg of Angiotensin I: 12 % of Control
[1]; oral 20 μmol/kg, 114 min, Ex. 242
  Blood Pressure Response to 400 ng/kg of Angiotensin I: 20 % of Control
[1]; oral 20 μmol/kg, 124 min, Ex. 242
  Blood Pressure Response to 400 ng/kg of Angiotensin I: 40 % of Control
[1]; oral 20 μmol/kg, 136 min, Ex. 242
  Blood Pressure Response to 400 ng/kg of Angiotensin I: 40 % of Control
[1]; oral 20 μmol/kg, 148 min, Ex. 242
  Blood Pressure Response to 400 ng/kg of Angiotensin I: 36 % of Control
[1]; oral 20 μmol/kg, 173 min, Ex. 242
  Blood Pressure Response to 400 ng/kg of Angiotensin I: 48 % of Control
[1]; oral 20 μmol/kg, 186 min, Ex. 242
  Blood Pressure Response to 400 ng/kg of Angiotensin I: 48 % of Control
[1]; oral 20 μmol/kg, 199 min, Ex. 242
  Blood Pressure Response to 400 ng/kg of Angiotensin I: 68 % of Control
[1]; oral 20 μmol/kg, 212 min, Ex. 242
  Blood Pressure Response to 400 ng/kg of Angiotensin I: 64 % of Control
[1]; oral 20 μmol/kg, 226 min, Ex. 242
  Blood Pressure Response to 400 ng/kg of Angiotensin I: 64 % of Control
[1]; oral 20 μmol/kg, 242 min, Ex. 242
  Blood Pressure Response to 400 ng/kg of Angiotensin I: 80 % of Control
[1]; oral 20 μmol/kg, 260 min, Ex. 242
  Blood Pressure Response to 400 ng/kg of Angiotensin I: 80 % of Control
[1]; oral 20 μmol/kg, 291 min, Ex. 242
  Blood Pressure Response to 400 ng/kg of Angiotensin I: 84 % of Control
[2]; i.v. 0.193 μmol/kg
  t1/2: 11 min
[2]; i.v. 0.58 μmol/kg
  t1/2: 11 min
[2]; i.v. 1.93 μmol/kg
  t1/2: 15 min

## C[C@H](CSC(=O)C(Cc1ccccc1)NC(=O)c1ccccc1)C(=O)N1CCC[C@H]1C(=O)O (stereo partly drawn) [potassium salt of N-alpha[3-(N-alpha-benzoyl-D,L-phenylalanylthio)-2-D-methylpropanoyl]-L-proline]
[2]; i.v. 1 μmole/Kg, 5 min, Ex. 247
  Blood Pressure Response to 400 ng/kg of Angiotensin I: 46 % of Control
[2]; i.v. 1 μmole/Kg, 10 min, Ex. 247
  Blood Pressure Response to 400 ng/kg of Angiotensin I: 37 % of Control
[2]; i.v. 1 μmole/Kg, 15 min, Ex. 247
  Blood Pressure Response to 400 ng/kg of Angiotensin I: 41 % of Control
[2]; i.v. 1 μmole/Kg, 20 min, Ex. 247
  Blood Pressure Response to 400 ng/kg of Angiotensin I: 37 % of Control
[2]; i.v. 1 μmole/Kg, 30 min, Ex. 247
  Blood Pressure Response to 400 ng/kg of Angiotensin I: 44 % of Control
[2]; i.v. 1 μmole/Kg, 40 min, Ex. 247
  Blood Pressure Response to 400 ng/kg of Angiotensin I: 50 % of Control
[2]; i.v. 1 μmole/Kg, 50 min, Ex. 247
  Blood Pressure Response to 400 ng/kg of Angiotensin I: 39 % of Control
[2]; i.v. 1 μmole/Kg, 60 min, Ex. 247
  Blood Pressure Response to 400 ng/kg of Angiotensin I: 46 % of Control
[2]; i.v. 1 μmole/Kg, 90 min, Ex. 247
  Blood Pressure Response to 400 ng/kg of Angiotensin I: 52 % of Control
[2]; i.v. 1 μmole/Kg, 120 min, Ex. 247
  Blood Pressure Response to 400 ng/kg of Angiotensin I: 59 % of Control
